Laboratory results from patent publication US20030190364A1, “Biological affinity based delivery systems” (priority 2002, published 2003).
Where two headings read alike, the source gives them in different places. Where no end group is shown, it is not given here. [ ]: non-standard residue; d: D form. The star is where a group is joined. FITC = O=C1OC2(c3ccc(O)cc3Oc3cc(O)ccc32)c2ccc(NC(=S)*)cc21; Dansyl = CN(C)c1cccc2c(S(=O)(=O)*)cccc12; βAla = NCCC(=O)O

What was measured:
[1] = Heparin affinity column, NaCl concentration required for elution; assay type: binding; conditions: 50 mM sodium phosphate pH 7.5, gradient 0 to 2 M NaCl over 20 column volumes
Description: For purposes of the present invention, conditions for determining the affinity of the PB polypeptides (and/or the therapeutic agent) for heparin are as follows: The polypeptide is solubilized in 50 mM sodium phosphate buffer, pH 7.5 to a final concentration of 0.5 mg/ml. 1 mg of the polypeptide is loaded onto an Amersham Biosciences HiPrep 16/10 Heparin FF column (or suitable equivalent) at a flow rate of 5 ml/min at 25° C. After loading the polypeptide, a salt gradient is introduced to the column by increasing the sodium chloride content of the buffer from 0 to 2 M NaCl over 20 column volumes. The recorded NaCl concentration required for elution is determined by correlating the maximum absorbance value at 280 and/or 215 nm for each spectrum to the value of the gradient at that time point.
FIG. 4 is a chart depicting the relative heparin affinity of various heparin-binding peptides. Each peptide was solubilized in 50 mM sodium phosphate buffer, pH 7.5 to a final concentration of 0.5 mg/ml. Then, 1 mg of each peptide was loaded onto an Amersham Biosciences HiPrep 16/10 Heparin FF column at a flow rate of 5 ml/min. After loading the peptide, a salt gradient was introduced to the column by increasing the sodium chloride content of the buffer from 0 to 2 M NaCl over 20 column volumes. The recorded NaCl concentration required for elution was determined by correlating the maximum absorbance value at 280 and/or 215 nm for each spectrum to the value of the gradient at that time point.

[2] = cited from earlier work
[3] = Relative affinity to heparin of synthesized peptides (Table 2); assay type: binding; conditions: corresponds to the bold-faced amino acids of the sequence
[4] = Dissociation constant (KD) of peptides from heparin, literature values; assay type: binding; conditions: PBD3 versus PBD2
[5] = references [1], [2], read-out: Affinity to Heparin (KD)

Row | Substance | NaCl Elution Conc. [1] | further results
1 | KAFAKLAARLYRKAGC [PBD1-A] | 325.0 mM | 
2 | FITC-A(β)AAFAKLAARLYRKAGC ({FITC}-[βAla]AAFAKLAARLYRKAGC) [PBD2] | 354.8 mM | Kd [2, 5]: 370 nM
3 | KAFAKLAARLYRKAGC [HBD-high] |  | Relative Affinity to Heparin [3]: 100%
4 | FITC-A(β)YGRKKRRQRRR (AYGRKKRRQRRR; N-terminal FITC-beta-alanine) [FITC-TAT] | 703.6 mM | 
5 | FITC-A(β)GGGGYGRKKRRQRRR ({FITC}-[βAla]GGGGYGRKKRRQRRR) [TAT, reference compound] |  | Kd ([2]; low molecular weight heparin and heparin to which only one molecule of TAT is bound (Rusnati, 1999), read-out: KD, dissociation constant for TAT from heparin): ~700 nM; Kd [2, 5]: 30 nM; Relative Affinity to Heparin [3]: 170%
6 | FITC-A(β)KAFAALAARLYRKAGC ({FITC}-[βAla]KAFAALAARLYRKAGC) [PBD3, PBD3 control is the same peptide tested without heparin] | 313.0 mM | Kd [2, 5]: 660 nM; dissociation constant relative to that of PBD2 [4]: 1.8 times
7 | WKA(β)FAKLNCRLYRKA (WK[βAla]FAKLNCRLYRKA) [PBD7] | 422.6 mM | 
8 | dansyl-GKAFAKLAARLYRKAGC (Dansyl-GKAFAKLAARLYRKAGC) [PBD1] | 685.9 mM | 
9 | FITC-A(β)KAFAKLAARLYRKAGC ({FITC}-[βAla]KAFAKLAARLYRKAGC) [FITC-PBD1] | 438.8 mM | 
10 | AAFAKLAARLYRKAGC [HBD-low] |  | Relative Affinity to Heparin [3]: 14.3%
11 | AKLNCRLYRKANKSSKL [PBD8] | 481.2 mM | 
12 | Dansyl-GYGRKKRRQRRR [Dansyl-TAT] | 727.6 mM | 
